Test results taken from US10118916B2, “Modulators of cystic fibrosis transmembrane conductance regulator protein” (AbbVie S.à.r.l., priority 2016, dated 2018).

Assays:
F508delCFTR = biological target: T1, F508delCFTR (Homo sapiens, UniProt P13569, DEL508-508); assay: Cell Surface Expression-Horse Radish Peroxidase (CSE-HRP) assay; type: cell-based; details: CFBE41o-F508delCFTR-HRP cells
T1 construct: expressed in transfected cells; host or cells: CFBE41o- (human lung derived epithelial cell line), doxycycline-inducible
T1 sequence (P13569 with tags, fused parts or gaps DEL508-508): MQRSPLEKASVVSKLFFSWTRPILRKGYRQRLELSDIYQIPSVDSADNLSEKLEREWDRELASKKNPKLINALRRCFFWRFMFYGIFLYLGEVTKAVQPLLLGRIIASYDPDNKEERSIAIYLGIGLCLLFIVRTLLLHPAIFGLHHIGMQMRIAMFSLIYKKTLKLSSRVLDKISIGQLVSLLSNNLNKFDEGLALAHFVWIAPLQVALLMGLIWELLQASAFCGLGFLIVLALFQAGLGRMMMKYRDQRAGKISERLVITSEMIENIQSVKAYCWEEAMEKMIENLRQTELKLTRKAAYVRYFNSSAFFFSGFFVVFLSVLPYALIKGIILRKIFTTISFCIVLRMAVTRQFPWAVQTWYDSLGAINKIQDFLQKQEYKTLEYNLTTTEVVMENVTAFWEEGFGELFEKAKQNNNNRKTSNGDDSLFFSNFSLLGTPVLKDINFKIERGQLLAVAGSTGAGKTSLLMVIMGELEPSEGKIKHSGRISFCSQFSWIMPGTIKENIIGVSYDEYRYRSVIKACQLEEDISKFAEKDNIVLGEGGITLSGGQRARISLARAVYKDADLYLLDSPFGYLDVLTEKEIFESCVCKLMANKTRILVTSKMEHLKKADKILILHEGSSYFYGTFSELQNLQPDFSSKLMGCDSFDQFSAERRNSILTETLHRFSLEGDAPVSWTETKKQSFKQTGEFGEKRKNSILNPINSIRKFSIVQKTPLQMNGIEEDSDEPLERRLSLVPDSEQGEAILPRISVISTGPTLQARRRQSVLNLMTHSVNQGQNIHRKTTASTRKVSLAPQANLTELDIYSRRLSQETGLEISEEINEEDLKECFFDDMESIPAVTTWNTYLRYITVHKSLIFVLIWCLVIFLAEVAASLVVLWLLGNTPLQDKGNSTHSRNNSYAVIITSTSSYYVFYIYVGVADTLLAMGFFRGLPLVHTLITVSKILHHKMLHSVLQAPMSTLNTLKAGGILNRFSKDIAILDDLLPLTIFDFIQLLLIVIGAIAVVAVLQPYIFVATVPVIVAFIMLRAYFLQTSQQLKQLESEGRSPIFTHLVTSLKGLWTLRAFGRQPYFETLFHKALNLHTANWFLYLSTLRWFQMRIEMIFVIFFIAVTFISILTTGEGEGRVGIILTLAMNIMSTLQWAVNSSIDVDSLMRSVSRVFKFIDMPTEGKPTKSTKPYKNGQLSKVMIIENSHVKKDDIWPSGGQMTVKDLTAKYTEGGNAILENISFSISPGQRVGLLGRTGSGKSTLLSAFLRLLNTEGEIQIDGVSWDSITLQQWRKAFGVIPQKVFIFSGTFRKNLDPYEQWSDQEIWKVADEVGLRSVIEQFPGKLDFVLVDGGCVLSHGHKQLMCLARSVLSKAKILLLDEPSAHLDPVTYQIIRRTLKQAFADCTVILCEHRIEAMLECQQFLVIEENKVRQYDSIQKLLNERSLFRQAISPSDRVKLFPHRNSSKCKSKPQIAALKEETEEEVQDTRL
Method in brief: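 CFBE41o- cells expressing doxycycline-induced (0.5 μg/mL, 72 h at 37 °C) F508delCFTR with HRP in the fourth extracellular loop; compounds 8 points, 3-fold from 20 μM, 18-24 h at 33 °C. Surface HRP measured by luminol luminescence, normalised to DMSO and 3 μM reference corrector; EC50 from variable-slope sigmoidal fit of triplicate plates.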

F508del/F508del CFTR = biological target: T2, F508del/F508del CFTR (Homo sapiens, UniProt P13569, DEL508-508); assay: Transepithelial Clamp Circuit (TECC-24) conductance assay on primary human bronchial epithelial cells (hBE-TECC); type: cell-based
T2 construct: cells isolated from CF patients with the homozygous mutation; endogenous in cells; host or cells: primary human bronchial epithelial (hBE) cells from F508del/F508del CF patients
T2 sequence (P13569 with tags, fused parts or gaps DEL508-508): as above
Text: Transepithelial Clamp Circuit on Human Bronchial Epithelial Cells Conductance Assay:
A cell based assay using the primary human bronchial epithelial cells (hBE) was used as a secondary assay to test novel F508delCFTR correctors for their activity on primary hBE cells with F508del/F508del CFTR mutation. The assay used a TECC-24 (Transepithelial Clamp Circuit for 24 wells) instrument that measures the functionality of the mutated channel by measuring the equivalent short circuit current (Ieq) generated by the polarized epithelial cells. The instrument works by measuring the transepithelial potential difference (Vt) and transepithelial resistance (Rt) in an open circuit format, and the Ieq is calculated by using Ohms law (Ieq=Vt/Rt). The assay was run in a 24-well format and all 24-wells were measured at the same time point giving a higher throughput for this assay.
Primary human bronchial epithelial (hBE) cells from F508del/F508delCFTR patients were expanded from 1×10^6 to 250×10^6 cells (Neuberger T, Burton B, Clark H and VanGoor F; Cystic Fibrosis, Methods in Mole Biol 741; eds. Amaral M D and Kunzelmann K, 2011). For this purpose, cells isolated from CF patients with the homozygous mutation were seeded onto 24 well Corning (Cat #3378) filter plates that were coated with 3T3 conditioned media and grown at an air-liquid interface for 35 days using an Ultroser® G supplemented differentiation media. Apical surface mucus was removed 72 hours before the experiment using 3 mM dithiothreitol (DTT) in phosphate buffered saline (PBS). The apical surface was washed again 24 hours before the experiment using PBS. The cells were incubated with the desired dose response of the corrector compounds 18-24 hours at 37° C., 5% CO2. The corrector compounds are only added on the basolateral side of the epithelial cells.
On the day of measuring the corrector activity on the TECC, the cells were switched into a bicarbonate and serum free F-12 Coon's medium and allowed to equilibrate for 30 minutes in a CO2 free incubator. At the time of measurement, the apical and basolateral sides of the filter were bathed with the F-12 Coon's modification media (with 20 mM 4-(2-hydroxyethyl)-1-piperazineethanesulfonic acid (HEPES), pH 7.4 (using 1 M tris(hydroxymethyl)aminomethane (Tris)), and the measurements were made at 36.5° C. Transepithelial voltage (Vt) and transepithelial resistance (Rt) were measured using a 24 channel transepithelial current clamp (TECC-24). Current responses to the sequential addition of benzamil (apical 6 μM addition; for inhibiting epithelial ENaC channel), forskolin (apical and basolateral 10 μM addition; for activating the CFTR channel), control potentiator (N-(3-carbamoyl-5,5,7,7-tetramethyl-4,7-dihydro-5H-thieno[2,3-c]pyran-2-yl)-1H-pyrazole-5-carboxamide; apical and basolateral 1 μM addition; for potentiating the CFTR channel) and bumetanide (basolateral 20 μM addition; for inhibiting the Na:2Cl:K co-transporter, an indirect measure of inhibiting the Cl— secretion driven by CFTR channel) were measured.
All plates contained negative controls (dimethyl sulfoxide, DMSO) which coupled with the control potentiator (N-(3-carbamoyl-5,5,7,7-tetramethyl-4,7-dihydro-5H-thieno[2,3-c]pyran-2-yl)-1H-pyrazole-5-carboxamide) sets the null response and positive controls (3 μM of 3-[(2R,4R)-4-({[1-(2,2-difluoro-1,3-benzodioxol-5-yl)cyclopropyl]carbonyl}amino)-7-methoxy-3,4-dihydro-2H-chromen-2-yl]benzoic acid) coupled with the control potentiator sets the 100% response to measure the correction of the mutated CFTR channel. The maximum percent activity is reported relative to the positive control value.
The % activity measured at each of the 6 test concentrations of the test compound was normalized to the on-plate positive control using the following formula: % activity=[(test compound response−DMSO response)/(positive control response−DMSO response)]*100 […]

EC50 (F508delCFTR; F508delCFTR cell surface expression, luminescence, 18-24 hours at 33° C., highest concentration 20 μM): 110 nM
Maximum % activity (F508delCFTR; maximum at any tested concentration, normalized to on-plate positive control (3 μM)): 125.5%
EC50 (F508del/F508del CFTR; equivalent short circuit current, 18-24 hours at 37° C., with control potentiator): 30 nM
Maximum % activity (F508del/F508del CFTR; relative to positive control (3 μM) coupled with control potentiator): 109.6%
SMILES: O=C(N[C@@H]1C[C@H]([C@H]2CC[C@H](C(=O)O)CC2)Oc2cc(OC(F)F)ccc21)C1(c2ccc3c(c2)OC(F)(F)O3)CC1 [Example 15B, trans-4-[(2R,4R)-4-{[1-(2,2-difluoro-2H-1,3-benzodioxol-5-yl)cyclopropane-1-carbonyl]amino}-7-(difluoromethoxy)-3,4-dihydro-2H-1-benzopyran-2-yl]cyclohexane-1-carboxylic acid]
